Source: PubChem BioAssay (NCI)
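Tested at 5 concentrations; 48 h exposure; 96-well plates; endpoints linearly interpolated, else capped at highest concentration. GI50: concentration for 50% inhibition of growth. TGI: total growth inhibition.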

Legend:
Test in all cases: growth of human tumour cells (NCI), 48 h
[1] = tested on: SK-OV-3 ovarian
[2] = tested on: LOX IMVI melanoma
[3] = tested on: NCI-H460 lung
[4] = tested on: RXF 393 renal
[5] = tested on: NCI-H522 lung
[6] = tested on: SNB-19 CNS
[7] = tested on: NCI-H23 lung
[8] = tested on: TK-10 renal
[9] = tested on: MDA-MB-435
[10] = tested on: KM12 colon
[11] = tested on: HCC-2998 colon
[12] = tested on: EKVX NSCLC
[13] = tested on: DU-145 prostate
[14] = tested on: SW-620 colon
[15] = tested on: SN12C renal
[16] = tested on: SF-539 CNS
[17] = tested on: SF-268 CNS
[18] = tested on: SF-295 CNS
[19] = tested on: HS 578T breast
[20] = tested on: OVCAR-5 ovarian
[21] = tested on: MCF7 breast
[22] = tested on: 786-0 renal
[23] = tested on: SNB-75 CNS
[24] = tested on: U251 CNS
[25] = tested on: A549 NSCLC
[26] = tested on: UACC-257 melanoma
[27] = tested on: MALME-3M melanoma
[28] = tested on: IGROV1 ovarian
[29] = tested on: NCI/ADR-RES ovarian
[30] = tested on: UO-31 renal
[31] = tested on: MDA-MB-231 breast
[32] = tested on: OVCAR-8 ovarian
[33] = tested on: HOP-92 NSCLC
[34] = tested on: K-562 leukemia
[35] = tested on: SK-MEL-28 melanoma
[36] = tested on: M14 melanoma
[37] = tested on: NCI-H226 lung
[38] = tested on: UACC-62 melanoma
[39] = tested on: HCT-15 colon
[40] = tested on: SK-MEL-5 melanoma
[41] = tested on: CAKI-1 renal
[42] = tested on: HCT-116 colon
[43] = tested on: PC-3 prostate
[44] = tested on: BT-549 breast
[45] = tested on: COLO 205 colon
[46] = tested on: HL-60(TB) leukemia
[47] = tested on: HOP-62 NSCLC
[48] = tested on: HT29 colon
[49] = tested on: A498 renal
[50] = tested on: SR leukemia
[51] = tested on: ACHN renal
[52] = tested on: T-47D breast
[53] = tested on: SK-MEL-2 melanoma
[54] = tested on: OVCAR-4 ovarian

Compound: COc1cc2c(cc1OC)C(Sc1ccc(C)cc1)c1c(nc(N)c(C#N)c1N)O2 (stereo not drawn)
- GI50 [1]: 1910 nM
- TGI [1]: 3.35 µM
- GI50 [2]: 1050 nM
- TGI [2]: 2420 nM
- GI50 [3]: 1760 nM
- TGI [3]: 3.36 µM
- GI50 [4]: 1150 nM
- TGI [4]: 2420 nM
- GI50 [5]: 1620 nM
- TGI [5]: 3.07 µM
- GI50 [6]: 1460 nM
- TGI [6]: 2840 nM
- GI50 [7]: 1590 nM
- TGI [7]: 3.1 µM
- GI50 [8]: 1200 nM
- TGI [8]: 2470 nM
- GI50 [9]: 1580 nM
- TGI [9]: 3.01 µM
- GI50 [10]: 1630 nM
- TGI [10]: 3.01 µM
- GI50 [11]: 1580 nM
- TGI [11]: 3.12 µM
- GI50 [12]: 1690 nM
- TGI [12]: 3.13 µM
- GI50 [13]: 1680 nM
- TGI [13]: 3.05 µM
- GI50 [14]: 1240 nM
- TGI [14]: 2740 nM
- GI50 [15]: 1490 nM
- TGI [15]: 2860 nM
- GI50 [16]: 1570 nM
- TGI [16]: 2930 nM
- GI50 [17]: 1560 nM
- TGI [17]: 3.08 µM
- GI50 [18]: 1600 nM
- TGI [18]: 3.05 µM
- GI50 [19]: 1970 nM
- TGI [19]: 4.87 µM
- GI50 [20]: 1810 nM
- TGI [20]: 3.31 µM
- GI50 [21]: 742 nM
- TGI [21]: 2270 nM
- GI50 [22]: 1420 nM
- TGI [22]: 2790 nM
- GI50 [23]: 1220 nM
- TGI [23]: 2470 nM
- GI50 [24]: 1360 nM
- TGI [24]: 2750 nM
- GI50 [25]: 1730 nM
- TGI [25]: 3.27 µM
- GI50 [26]: 1630 nM
- TGI [26]: 3.07 µM
- GI50 [27]: 1740 nM
- TGI [27]: 3.24 µM
- GI50 [28]: 715 nM
- TGI [28]: 2040 nM
- GI50 [29]: 1670 nM
- TGI [29]: 3.37 µM
- GI50 [30]: 1070 nM
- TGI [30]: 2250 nM
- GI50 [31]: 1650 nM
- TGI [31]: 3.13 µM
- GI50 [32]: 1550 nM
- TGI [32]: 2910 nM
- GI50 [33]: 1510 nM
- TGI [33]: 2930 nM
- GI50 [34]: 558 nM
- TGI [34]: > 100 µM
- GI50 [35]: 1670 nM
- TGI [35]: 3.06 µM
- GI50 [36]: 1770 nM
- TGI [36]: 3.29 µM
- GI50 [37]: 1900 nM
- TGI [37]: 3.99 µM
- GI50 [38]: 1740 nM
- TGI [38]: 3.22 µM
- GI50 [39]: 1000 nM
- TGI [39]: 2430 nM
- GI50 [40]: 1780 nM
- TGI [40]: 3.22 µM
- GI50 [41]: 1050 nM
- TGI [41]: 2250 nM
- GI50 [42]: 1510 nM
- TGI [42]: 3.03 µM
- GI50 [43]: 1510 nM
- TGI [43]: 2930 nM
- GI50 [44]: 1220 nM
- TGI [44]: 2490 nM
- GI50 [45]: 1490 nM
- TGI [45]: 2870 nM
- GI50 [46]: 431 nM
- TGI [46]: 4.05 µM
- GI50 [47]: 1800 nM
- TGI [47]: 3.24 µM
- GI50 [48]: 1770 nM
- TGI [48]: 3.43 µM
- GI50 [49]: 1380 nM
- TGI [49]: 2670 nM
- GI50 [50]: 291 nM
- TGI [50]: > 100 µM
- GI50 [51]: 1510 nM
- TGI [51]: 2860 nM
- GI50 [52]: 1220 nM
- TGI [52]: 3.56 µM
- GI50 [53]: 1590 nM
- TGI [53]: 2990 nM
- GI50 [54]: 1660 nM
- TGI [54]: 3.07 µM
